Source: patent US8227511B2, “Substituted chromanol derivatives and their use” (Bayer Intellectual Property GmbH, priority 2006, dated 2012)

Legend:
CETP [1] = biological target: T1, CETP (Homo sapiens, UniProt P11597); test: CETP fluorescence test with enriched CETP; type: biochemical; conditions: enriched CETP fraction from human plasma; transfer of fluorescent cholesterol ester between liposomes; 37° C. for 4 h
T1 construct: CETP is obtained in partially purified form from human plasma by differential centrifugation and column chromatography and used for the test; from tissue; host or cells: human plasma
T1 sequence (P11597 18-493): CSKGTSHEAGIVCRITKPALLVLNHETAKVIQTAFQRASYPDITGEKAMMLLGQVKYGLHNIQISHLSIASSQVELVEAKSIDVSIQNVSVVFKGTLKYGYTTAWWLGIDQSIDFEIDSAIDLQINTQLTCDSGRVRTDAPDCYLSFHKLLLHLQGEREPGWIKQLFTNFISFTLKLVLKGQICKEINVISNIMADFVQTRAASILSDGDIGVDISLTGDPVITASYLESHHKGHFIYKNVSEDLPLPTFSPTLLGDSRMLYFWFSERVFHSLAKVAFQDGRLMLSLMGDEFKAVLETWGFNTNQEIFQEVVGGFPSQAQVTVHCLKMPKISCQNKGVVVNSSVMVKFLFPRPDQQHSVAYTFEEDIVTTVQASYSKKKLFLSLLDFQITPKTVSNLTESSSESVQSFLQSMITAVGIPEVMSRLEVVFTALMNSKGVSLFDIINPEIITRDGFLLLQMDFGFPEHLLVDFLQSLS
Method: (§1) CETP is obtained in partially purified form from human plasma by differential centrifugation and column chromatography and used for the test. To this end, human plasma is adjusted to a density of 1.21 g per ml using NaBr and centrifuged at 4° C. at 50 000 rpm for 18 h. The bottom fraction (d>1.21 g/ml) is applied to a Phenyl-Sepharose 26/10 HP fast flow-column (Pharmacia), washed with PBS buffer and then eluted with distilled water. 10 parts of PBS buffer and 1% (w/v) BSA are added to the eluate. The CETP-active fractions are pooled.
Measurement of the CETP-catalyzed transfer of a fluorescent cholesterol ester between liposomes [modified according to the procedure of Bisgaier et al., J. Lipid Res. 34, 1625 (1993)]:
For the production of the donor liposomes, 1 mg of cholesteryl 4,4-difluoro-5,7-dimethyl-4-bora-3a,4a-diaza-s-indacene-3-dodecanoate (cholesteryl BODIPY® FL C12, Molecular Probes) is dissolved in 2 ml of chloroform with 5.35 mg of triolein and 6.67 mg of phosphatidylcholine. The solvent is removed at medium temperature in a SpeedVac and the residue is dried under high vacuum for 1 h. The residue is then dissolved in 600 μl of dioxane with gentle warming in an ultrasonic bath and this solution is added very slowly with ultrasonication to 63 ml of 50 mM Tris/HCl, 150 mM NaCl, 2 mM EDTA buffer pH 7.3 at room temperature. The suspension is then ultrasonicated under an N2 atmosphere for 30 minutes in the Branson ultrasonic bath at about 50 watts, the temperature being kept at about 20° C.
The acceptor liposomes are obtained analogously from 86 mg of cholesteryl oleate, 20 mg of triolein and 100 mg of phosphatidylcholine dissolved in 1.2 ml of dioxane and 114 ml of the above buffer by ultrasonication at 50 watts (20° C.) for 30 minutes.
For testing, a test mix consisting of 1 part of above buffer, 1 part of donor liposomes and 2 parts of acceptor liposomes is used.
50 μl of test mix are treated with 48 μl of enriched CETP fraction (1-3 μg), obtained from human plasma by means of hydrophobic chromatography, and 2 μl of a solution of the substance to be investigated in DMSO and incubated at 37° C. for 4 h.
The change in the fluorescence at 485/535 nm is a measure of the CE transfer; the inhibition of the transfer in comparison to the control batch without substance is determined.

CETP [2] = biological target: T1, CETP; test: CETP-SPA test; type: biochemical; conditions: transfer of 3H-cholesterol ester from human HDL to biotinylated LDL; 37° C. for 18 h
Method: as §1
For testing of the CETP activity, the transfer of ^3H-cholesterol ester from human HD lipoproteins to biotinylated LD lipoproteins is measured. The reaction is ended by addition of streptavidin-SPA® beads (Amersham) and the transferred radioactivity is determined directly in a liquid scintillation counter.
In the test batch, 10 μl of HDL-3H-cholesterol ester (about 50 000 cpm) are incubated at 37° C. for 18 h with 10 μl of biotin-LDL (Amersham) in 50 mM Hepes/0.15 M NaCl/0.1% bovine serum albumin (RSA)/0.05% NaN3 pH 7.4 containing 10 μl of CETP (1 mg/ml) and 3 μl of a solution of the substance to be tested (dissolved in 10% DMSO/1% RSA). 200 μl of the SPA-streptavidin bead solution (TRKQ 7005) are then added, incubated further with shaking for 1 h and then measured in a scintillation counter. Corresponding incubations with 10 μl of buffer, 10 μl of CETP at 4° C. and 10 μl of CETP at 37° C. serve as controls.
The activity transferred in the control batches with CETP at 37° C. is rated as 100% transfer. The substance concentration at which this transfer is reduced to half is specified as the IC50 value.

transgenic hCETP mice = test: Measurement of the in vivo activity in transgenic hCETP mice; conditions: perorally once a day on 3 days, percentage change compared with the starting value
Method: To determine the oral action on lipoproteins and triglycerides, test substance is administered perorally to transgenic mice [Dinchuk et al., BBA, 1295-1301 (1995)] using a stomach tube once a day on 3 days. For this purpose, the substances are dissolved in 10% Solutol HS 15/10% ethanol/80% of a 0.9% strength sodium chloride solution; the administration volume is generally 10 ml per kg of body weight. Before the start of the experiment, blood is withdrawn from the mice retro-orbitally in order to determine cholesterol and triglycerides in the serum. The serum is obtained as described above for hamsters by incubation at room temperature for 30 min and subsequent centrifugation at 6000 g. On the day after the last administration of substance, blood is again withdrawn from the mice in order to determine lipoproteins and triglycerides. The changes in the parameters measured are expressed as the percentage change compared with the starting value.

| Structure (SMILES) | IC50 (CETP [1]) [nM] | IC50 (CETP [2]) [nM] | % increase of HDL after 3 d (dose: 3 × 3 mg/kg) (transgenic hCETP mice) [%] |
| --- | --- | --- | --- |
| CC(C)c1cc2c(c(-c3ccc(F)cc3)c1[C@@H](F)c1ccc(C(F)(F)F)cc1)[C@@H](O)CC(C)(C)O2 [Example 7, (4S)-5-(4-Fluorophenyl)-6-{(S)-fluoro[4-(trifluoromethyl)phenyl]methyl}-7-isopropyl-2,2-dimethylchroman-4-ol] | 32 | 20 | 67 |
| CC(C)c1cc2c(c(-c3ccc(F)cc3)c1[C@@H](O)c1ccc(C(F)(F)F)cc1)[C@@H](O)CC1(CCC1)O2 [Example 28, (4S)-5-(4-Fluorophenyl)-6-{(S)-hydroxy[4-(trifluoromethyl)phenyl]methyl}-7-isopropyl-3,4-dihydrospiro[chromen-2,1′-cyclobutan]-4-ol] | 77 | 22 | 25 |
| CC(C)c1cc2c(c(-c3ccc(F)cc3)c1[C@@H](F)c1ccc(C(F)(F)F)cc1)[C@@H](O)CC1(CCC1)O2 [Example 30, (4S)-5-(4-Fluorophenyl)-6-{(S)-fluoro[4-(trifluoromethyl)phenyl]methyl}-7-isopropyl-3,4-dihydro-spiro[chromen-2,1′-cyclobutan]-4-ol] | 18 | 12 | 83 |
| CC(C)c1cc2c(c(-c3ccc(F)cc3)c1Cc1ccc(C(F)(F)F)cc1)[C@@H](O)CC1(CCC1)O2 [Example 32, (4S)-5-(4-Fluorophenyl)-7-isopropyl-6-[4-(trifluoromethyl)benzyl]-3,4-dihydrospiro[chromen-2,1′-cyclobutan]-4-ol] | 19 | 4 | 31 |
| CC(C)c1cc2c(c(-c3ccc(F)cc3)c1Cc1ccc(C(C)(C)C)cc1)[C@@H](O)CC1(CCC1)O2 [Example 36, (4S)-6-(4-tert-Butylbenzyl)-5-(4-fluorophenyl)-7-isopropyl-3,4-dihydrospiro[chromen-2,1′-cyclo-butan]-4-ol] | 28 | 6 | 40 |
| CC(C)c1cc2c(c(C3CCCC3)c1[C@@H](F)c1ccc(C(F)(F)F)cc1)[C@@H](O)CC1(CCC1)O2 [Example 42, (4S)-5-Cyclopentyl-6-{(S)-fluoro[4-(trifluoromethyl)phenyl]methyl}-7-isopropyl-3,4-dihydrospiro-[chroman-2,1′-cyclobutan]-4-ol] | 26 | 21 | 81 |
| O[C@@H](c1ccc(OC(F)(F)F)cc1)c1c(C2CCCC2)cc2c(c1-c1ccc(F)cc1)[C@@H](O)CC1(CCC1)O2 [Example 52] | 198 | 30 | – |
| CC(C)c1cc2c(c(-c3ccc(F)cc3)c1[C@@H](O)c1ccc(C(F)(F)F)cc1)[C@@H](O)CC1(CC1)O2 [Example 55] | 27 | 4 | – |
| CC(C)c1cc2c(c(-c3ccc(F)cc3)c1[C@H](F)c1ccc(C(F)(F)F)cc1)[C@@H](O)CC1(CC1)O2 [Example 58] | 300 | 68 | – |
